Results from US9422321B2, “Pyrimidine nucleoside derivatives, synthesis methods and uses thereof for preparing anti-tumor and anti-virus medicaments” (High & New Technology Research Center, Henan Academy of …, priority 2010, dated 2016).
“And” between values parts separate entries of the source, which are not always exact repeats. Equal values may be shown once.

Key:
[1] = system: human lymphoma Raji cells; test: Inhibition of cell growth by MTT reduction; format: cell-based; conditions: read-out: Inhibitory activity, IC50
Description: Cell culturing: Raji cells in RPMI1640 culture solution containing 10% fetal calf serum were incubated in an incubator at 37° C. with 5% CO2 for 2-3 days. Cells in logarithmic growth phase were used for the experiment.
Cells in logarithmic growth phase were taken and after the cell density was adjusted to 5×10^4 cells/mL, they were seeded to three 96-well plates separately, 100 μL per well. The culture solution was replaced after 24 h cell culturing. […] The blank group (for zeroing) was only added with RPMI1640 culture solution containing 10% fetal calf serum and no cell was added. The control group was added with an equal volume of RPMI1640 culture solution containing 10% fetal calf serum. Each group had 5 replicates. After cells were incubated for 24 h, 48 h and 72 h separately, 20 μL MTT solution (5 mg/mL) was added to each well followed by a 4 h incubation. The supernatant was removed by sucking it out and discarded. 150 μL DMSO was added per well, vortexed about 5 min to mix evenly. After the crystal was completely dissolved, the absorption (A) value at 570 nm of each well was tested within 20 min on enzyme-linked immuno analyzer. The experiment was repeated 3 times and the average was taken to calculate the inhibition rate of cell growth by the following equation. Inhibition rate of cell growth=(1−average A value of experimental group/average A value of control group)×100%

HCV-RNA = test: In vitro anti-HCV activity, quantitative determination of HCV-RNA; format: cell-based, hepatitis C virus (HCV); conditions: for levels of HCV-RNA: control 0 μg/mL: Exp 1 5.3 × 10^2, Exp 2 4.0 × 10^2
Description: HCV replication cells (Avva.5) were cultivated in Dulbecco's modified Eagle medium containing 10% fetal calf serum and 1 mg/mL G418. 293-Sip-L cells were cultivated in Dulbecco's modified Eagle medium containing 10% fetal calf serum, 250 μg/mL G418 and 150 μg/mL hygromycin B.
Cells in a Φ60 mm Petri dish were incubated in positive medium containing 100 μL HCV for 12 h, then in fresh medium free of HCV that was replaced every day. When being tested for HCV-RNA seven days after the infection, cells were trypsinized and washed with Dulbecco's modified Eagle medium twice through a centrifugation method. The upper layer from the second wash (as a control) and the washed cells were collected in pairs and used for RNA extraction and RT-PCR test. The β-actin mRNA was determined simultaneously as a control.
The quantitative determination of HCV-RNA was performed using automatic PCR enzyme-linked immunoassay (version 2.0, Roche Diagnostics, Branchburg, N.J.).
The levels of HCV-RNA were determined using automatic PCR enzyme-linked immunoassay.

HBsAg = test: In vitro inhibition of HBV: HBsAg in HepG2.2.15 cells by ELISA; format: cell-based; conditions: Hepatitis B virus, HepG2.2.15, read-out: IC50 (μM) (HBsAg)
Description: (§1) A tube of frozen HepG2.2.15 cells taken from a liquid nitrogen tank was quickly placed into a water bath at 42° C. and shaken to thaw. DMEM complete medium (fetal bovine serum 10%, G418 380 μg/mL, Penicillin 100 U/ml, Streptomycin 100 U/ml) was used for cell culturing at conditions of 37° C. and 5% CO2. The number of cell passage in normal growing cells was once per 2-3 days.
(§2) The effect of a compound on HBV surface antigen s and antigen e in the cell culture was detected using a screening concentration lower than the half toxic concentration of the compound. HepG2.2.15 cells in logarithmic growth phase were selected and digested with trypsin into single cell suspension, and were seeded to a 24-well plate at a concentration of 2×10^4/mL, 1 mL per well. Media of different medicament concentrations were added, three wells for each concentration, and cells added with complete medium were set as normal control. Cell supernatants and cells at day 3, day 6 and day 9 were collected and kept under −20° C. The intracellular and extracellular expressions of e antigen and surface antigen at day 3, day 6 and day 9 were determined by ELISA.
(§3) 2.4 Effect of the Compound on HBeAg and HBsAg in HepG2.2.15 Cell Supernatant Detected by ELISA
(§4) The instructions of the kit were followed;
(§5) Measurement: OD value of each well was read from microplate reader using dual wavelength 450/630 nm.
(§6) Result determination: The Cutoff value was first calculated according to equation: COV=average OD of negative control×2.1. Then, if a sample had OD≧COV, the result was determined as positive, or if a sample had OD≦COV, the result was determined as negative.

[2] = MTT test of cytotoxicity on HepG2.2.15 cells; format: cell-based; conditions: human, read-out: CC50 (μM) (HepG2. 2. 15)
Description: as §1
Cytotoxicity of the compound on HepG2.2.15 cells was tested with the MTT colorimetric assay established by Mosmann. After continuous incubation for 72 h, 10 μL MTT was added to each well. Four hours later, the supernatant was discarded and 200 μL DMSO was added to each well. The OD value in each well was read using a microplate reader (measurement wavelength 490 nm, reference wavelength 630 nm). The result was recorded and the percentage inhibition of HepG2.2.15 cells by each compound was calculated:
The half toxic concentration (TC50) of the medicament on cells was calculated according to the percentage inhibition of the cell by the medicament.

VSVG/HIV-luc (NL4-3) = test: microbe, parasite or virus in culture; format: cell-based, HIV-1; conditions: Human immunodeficiency virus 1, NL43, HEK-293T; for EC50: 48 h, read-out: EC50 (μM) VSVG/HIV-luc (NL4-3)
[3] = MTS test of effects of the compound on cell survival; format: cell-based; conditions: human, 293T cells
Description: Then, 20 μL freshly prepared mixture of MTS/PMS was added to each well and after 4 h incubation in the incubator at 37° C. with 5% CO2, the color was developed. The light absorption (OD) of each well at wavelengths 490 nm and 650 nm (background) was detected on an enzyme linked immuno analyzer, and the survival rate of cells was calculated.

HBeAg = test: In vitro inhibition of HBV: HBeAg in HepG2.2.15 cells by ELISA; format: cell-based; conditions: Hepatitis B virus, HepG2.2.15, read-out: IC50 (μM) (HBeAg)
Description: as §1, §2, §3, §4, §5, §6

[N-]=[N+]=N[C@]1(CO)O[C@@H](n2ccc(NCCN)nc2=O)C(F)C1O (stereo partly shown) [Compound 5-02]
IC50 [1]: 45 µM | levels of HCV-RNA (HCV-RNA; 0.06 μg/mL in the culture): 4.5 × 10^2 and 4.2 × 10^2 | levels of HCV-RNA (HCV-RNA; 0.6 μg/mL in the culture): 0.90 × 10^2 and 0.70 × 10^2 | levels of HCV-RNA (HCV-RNA; 6 μg/mL in the culture): 1.0 × 10^2 and 0.80 × 10^2 | inhibitory effect on HCV (HCV-RNA; concentrations 6, 0.6 and 0.06 μg/mL): exhibited inhibitory effect | IC50 (HBsAg): 8.05 µM | CC50 at 72 h [2]: ≥ 25 µM | EC50 (VSVG/HIV-luc (NL4-3)): 0.093 ± 0.067 µM | CC50 at 44 h [3]: ≥ 25 µM

[N-]=[N+]=N[C@]1(CO)O[C@@H](n2ccc(N(CCO)CCO)nc2=O)C(F)C1O (stereo partly shown) [Compound 5-19]
IC50 [1]: 1.6 µM | IC50 (HBsAg): 0.009 µM | CC50 at 72 h [2]: > 1250 µM | EC50 (VSVG/HIV-luc (NL4-3)): 0.8 ± 0.7 µM | CC50 at 44 h [3]: ≥ 25 µM

COC(=O)CC[C@H](Nc1ccn([C@@H]2O[C@@](CO)(N=[N+]=[N-])C(O)C2F)c(=O)n1)C(=O)OC (stereo partly shown) [Compound 7b]
IC50 [1]: 28 µM | IC50 (HBsAg): 0.02 µM | CC50 at 72 h [2]: > 1250 µM | IC50 (HBeAg): 6.16 µM | EC50 (VSVG/HIV-luc (NL4-3)): 0.7 ± 0.1 µM | CC50 at 44 h [3]: ≥ 25 µM

COC(=O)[C@@H](Cc1cc2ccccc2[nH]1)Nc1ccn([C@@H]2O[C@@](CO)(N=[N+]=[N-])C(O)C2F)c(=O)n1 (stereo partly shown) [Compound 7c]
IC50 (HBsAg): 0.2 µM | CC50 at 72 h [2]: ≥ 280 µM | IC50 (HBeAg): 0.32 µM | EC50 (VSVG/HIV-luc (NL4-3)): 0.5 µM | inhibition at 10 µM (VSVG/HIV-luc (NL4-3); read-out: Inhibitory activity at 10 μM): 38.8 ± 3.3% | CC50 at 44 h [3]: ≥ 25 µM

COC(=O)C(C)Nc1ccn([C@@H]2O[C@@](CO)(N=[N+]=[N-])C(O)C2F)c(=O)n1 (stereo partly shown) [Compound 7m]
IC50 (HBsAg): 1.89 µM | CC50 at 72 h [2]: 311 µM | IC50 (HBeAg): 21.2 µM | EC50 (VSVG/HIV-luc (NL4-3)): 10 ± 6.6 µM | CC50 at 44 h [3]: ≥ 25 µM

[N-]=[N+]=N[C@]1(CO)O[C@@H](n2ccc(NCC(=O)O)nc2=O)C(F)C1O (stereo partly shown) [Compound 8a]
IC50 (HBsAg): 13.8 µM | CC50 at 72 h [2]: > 250 µM | IC50 (HBeAg): 16.7 µM | EC50 (VSVG/HIV-luc (NL4-3)): 5.1 ± 1.1 µM | CC50 at 44 h [3]: ≥ 25 µM

[N-]=[N+]=N[C@]1(CO)O[C@@H](n2ccc(N[C@@H](Cc3cc4ccccc4[nH]3)C(=O)O)nc2=O)C(F)C1O (stereo partly shown) [Compound 8d]
IC50 (HBsAg): 0.03 µM | CC50 at 72 h [2]: ≥ 25 µM | IC50 (HBeAg): 0.36 µM | EC50 (VSVG/HIV-luc (NL4-3)): 0.7 ± 0.1 µM | CC50 at 44 h [3]: ≥ 25 µM

COC(=O)C[C@H](Nc1ccn([C@@H]2O[C@@](CO)(N=[N+]=[N-])C(O)C2F)c(=O)n1)C(=O)OC (stereo partly shown) [Compound 8e]
IC50 (HBsAg): 20.5 µM | CC50 at 72 h [2]: 231 µM | IC50 (HBeAg): 12.8 µM | EC50 (VSVG/HIV-luc (NL4-3)): 12 ± 2.8 µM | CC50 at 44 h [3]: ≥ 25 µM
